In this assay the target is T1, human calpain 1 protease (HCAN1) (Homo sapiens, UniProt P07384).
T1 construct: gene CAPN1; with Calpain small subunit 1
T1 sequence (P07384 2-714): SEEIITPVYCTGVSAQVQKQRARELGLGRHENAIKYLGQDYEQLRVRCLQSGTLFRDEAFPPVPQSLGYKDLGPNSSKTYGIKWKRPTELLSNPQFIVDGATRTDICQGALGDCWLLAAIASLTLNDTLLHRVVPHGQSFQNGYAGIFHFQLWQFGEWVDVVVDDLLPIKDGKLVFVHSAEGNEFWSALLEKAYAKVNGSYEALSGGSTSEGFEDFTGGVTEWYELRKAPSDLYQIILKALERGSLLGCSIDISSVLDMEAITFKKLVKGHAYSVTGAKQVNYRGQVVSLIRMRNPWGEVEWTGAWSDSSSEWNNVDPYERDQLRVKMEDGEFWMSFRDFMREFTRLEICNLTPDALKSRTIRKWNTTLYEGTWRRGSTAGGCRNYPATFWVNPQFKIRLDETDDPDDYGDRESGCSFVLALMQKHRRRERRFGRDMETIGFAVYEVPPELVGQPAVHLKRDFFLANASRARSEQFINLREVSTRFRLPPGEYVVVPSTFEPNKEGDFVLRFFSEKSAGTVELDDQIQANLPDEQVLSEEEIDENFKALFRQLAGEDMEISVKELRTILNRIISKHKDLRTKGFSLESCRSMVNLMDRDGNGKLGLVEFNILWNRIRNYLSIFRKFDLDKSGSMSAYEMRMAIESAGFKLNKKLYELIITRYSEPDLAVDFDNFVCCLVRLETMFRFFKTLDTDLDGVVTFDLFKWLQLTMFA
T1 sequence (P04632 1-268 partner): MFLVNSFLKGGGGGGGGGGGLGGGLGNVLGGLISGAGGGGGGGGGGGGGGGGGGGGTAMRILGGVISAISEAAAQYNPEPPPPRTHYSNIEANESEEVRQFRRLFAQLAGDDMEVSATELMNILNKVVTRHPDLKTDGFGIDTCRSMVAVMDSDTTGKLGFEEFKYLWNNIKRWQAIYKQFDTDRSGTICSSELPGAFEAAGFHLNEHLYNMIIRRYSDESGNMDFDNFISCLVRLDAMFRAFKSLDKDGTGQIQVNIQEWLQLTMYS
Description: fluorescence calpain activity assay kit (Ac-LLY-AFC). It counts as biochemical.

Read-outs that look alike come from different tables or passages of the source. Bounds are passed on as bounds.

`CCCCCCCCCC(=O)N[C@@H](CO)C(=O)N[C@H](C(=O)N[C@@H](CO)[C@@H](O)CC(=O)N[C@H](C(=O)N[C@@H]1CCC(=O)N[C@@H](C(C)C)C(=O)N(C)[C@@H](Cc2ccc(O)cc2)C(=O)OC1)C(C)C)C(C)C` [compound 3, 3]: the 50% inhibitory concentration (IC50) is over 5000 nM.

For the setting “Ac-LLY-AFC substrate, 37 °C, 1 h, covalent (Michael addition to Cys115)”, Thalassospiramide C [compound 4] gave an IC50 of 3.4 ± 1.2 nM.
